# Assay results reported in PubChem BioAssay (NCI).
#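 48-hour exposure; five concentrations; linearly interpolated endpoints. GI50 is the concentration that inhibits growth by half. At the TGI there is no net growth.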
# Experiments:
# Assay in all cases: inhibition of tumour cell growth, NCI panel, 48 h
# LOX IMVI melanoma = tested on: LOX IMVI melanoma
# U251 CNS = tested on: U251 CNS
# NCI-H460 lung = tested on: NCI-H460 lung
# KM12 colon = tested on: KM12 colon
# MALME-3M melanoma = tested on: MALME-3M melanoma
# OVCAR-5 ovarian = tested on: OVCAR-5 ovarian
# NCI-H23 lung = tested on: NCI-H23 lung
# DU-145 prostate = tested on: DU-145 prostate
# SNB-19 CNS = tested on: SNB-19 CNS
# SF-295 CNS = tested on: SF-295 CNS
# HOP-92 NSCLC = tested on: HOP-92 NSCLC
# SW-620 colon = tested on: SW-620 colon
# OVCAR-8 ovarian = tested on: OVCAR-8 ovarian
# SF-539 CNS = tested on: SF-539 CNS
# EKVX NSCLC = tested on: EKVX NSCLC
# OVCAR-3 ovarian = tested on: OVCAR-3 ovarian
# MOLT-4 leukemia = tested on: MOLT-4 leukemia
# CCRF-CEM leukemia = tested on: CCRF-CEM leukemia
# HL-60(TB) leukemia = tested on: HL-60(TB) leukemia
# M14 melanoma = tested on: M14 melanoma
# HCT-15 colon = tested on: HCT-15 colon
# SN12C renal = tested on: SN12C renal
# UACC-257 melanoma = tested on: UACC-257 melanoma
# SK-MEL-2 melanoma = tested on: SK-MEL-2 melanoma
# SK-MEL-28 melanoma = tested on: SK-MEL-28 melanoma
# HCT-116 colon = tested on: HCT-116 colon
# HT29 colon = tested on: HT29 colon
# BT-549 breast = tested on: BT-549 breast
# UO-31 renal = tested on: UO-31 renal
# MDA-MB-231 breast = tested on: MDA-MB-231 breast
# SK-MEL-5 melanoma = tested on: SK-MEL-5 melanoma
# A549 NSCLC = tested on: A549 NSCLC
# NCI-H226 lung = tested on: NCI-H226 lung
# SNB-75 CNS = tested on: SNB-75 CNS
# SR leukemia = tested on: SR leukemia
# IGROV1 ovarian = tested on: IGROV1 ovarian
# TK-10 renal = tested on: TK-10 renal
# CAKI-1 renal = tested on: CAKI-1 renal
# MCF7 breast = tested on: MCF7 breast
# RPMI-8226 leukemia = tested on: RPMI-8226 leukemia
# MDA-MB-435 = tested on: MDA-MB-435
# RXF 393 renal = tested on: RXF 393 renal
# HOP-62 NSCLC = tested on: HOP-62 NSCLC
# A498 renal = tested on: A498 renal
# 786-0 renal = tested on: 786-0 renal
# UACC-62 melanoma = tested on: UACC-62 melanoma
# HCC-2998 colon = tested on: HCC-2998 colon
# K-562 leukemia = tested on: K-562 leukemia
# OVCAR-4 ovarian = tested on: OVCAR-4 ovarian
# COLO 205 colon = tested on: COLO 205 colon
# SK-OV-3 ovarian = tested on: SK-OV-3 ovarian
# PC-3 prostate = tested on: PC-3 prostate
# ACHN renal = tested on: ACHN renal
# T-47D breast = tested on: T-47D breast
# NCI-H522 lung = tested on: NCI-H522 lung
# NCI/ADR-RES ovarian = tested on: NCI/ADR-RES ovarian
# HS 578T breast = tested on: HS 578T breast
# SF-268 CNS = tested on: SF-268 CNS
smiles,measurement,setting,value
CC(=O)c1ccc2c(c1)N(CCCN(C)C)c1ccccc1S2,GI50,LOX IMVI melanoma,12.4 µM
same,TGI,LOX IMVI melanoma,25.4 µM
same,GI50,U251 CNS,15.1 µM
same,TGI,U251 CNS,32.1 µM
same,GI50,NCI-H460 lung,18 µM
same,TGI,NCI-H460 lung,33.8 µM
same,GI50,KM12 colon,15.7 µM
same,TGI,KM12 colon,29.6 µM
same,GI50,MALME-3M melanoma,17.9 µM
same,TGI,MALME-3M melanoma,38.3 µM
same,GI50,OVCAR-5 ovarian,13.9 µM
same,TGI,OVCAR-5 ovarian,27.9 µM
same,GI50,NCI-H23 lung,17.1 µM
same,TGI,NCI-H23 lung,44.4 µM
same,GI50,DU-145 prostate,17.1 µM
same,TGI,DU-145 prostate,34.3 µM
same,GI50,SNB-19 CNS,18.6 µM
same,TGI,SNB-19 CNS,43.2 µM
same,GI50,SF-295 CNS,11.9 µM
same,TGI,SF-295 CNS,25.5 µM
same,GI50,HOP-92 NSCLC,11.3 µM
same,TGI,HOP-92 NSCLC,53.7 µM
same,GI50,SW-620 colon,16.5 µM
same,TGI,SW-620 colon,31.8 µM
same,GI50,OVCAR-8 ovarian,17.7 µM
same,TGI,OVCAR-8 ovarian,37.4 µM
same,GI50,SF-539 CNS,13.7 µM
same,TGI,SF-539 CNS,28.2 µM
same,GI50,EKVX NSCLC,13.1 µM
same,TGI,EKVX NSCLC,30.9 µM
same,GI50,OVCAR-3 ovarian,16.5 µM
same,TGI,OVCAR-3 ovarian,31.4 µM
same,GI50,MOLT-4 leukemia,16.8 µM
same,TGI,MOLT-4 leukemia,41.2 µM
same,GI50,CCRF-CEM leukemia,18.5 µM
same,TGI,CCRF-CEM leukemia,47.3 µM
same,GI50,HL-60(TB) leukemia,14 µM
same,TGI,HL-60(TB) leukemia,41 µM
same,GI50,M14 melanoma,14.9 µM
same,TGI,M14 melanoma,30 µM
same,GI50,HCT-15 colon,16 µM
same,TGI,HCT-15 colon,31.2 µM
same,GI50,SN12C renal,14.5 µM
same,TGI,SN12C renal,30.8 µM
same,GI50,UACC-257 melanoma,18.7 µM
same,TGI,UACC-257 melanoma,37.8 µM
same,GI50,SK-MEL-2 melanoma,18.1 µM
same,TGI,SK-MEL-2 melanoma,35.7 µM
same,GI50,SK-MEL-28 melanoma,16.2 µM
same,TGI,SK-MEL-28 melanoma,32 µM
same,GI50,HCT-116 colon,11.3 µM
same,TGI,HCT-116 colon,23.7 µM
same,GI50,HT29 colon,11.2 µM
same,TGI,HT29 colon,28.4 µM
same,GI50,BT-549 breast,12.7 µM
same,TGI,BT-549 breast,25.8 µM
same,GI50,UO-31 renal,13.5 µM
same,TGI,UO-31 renal,29.1 µM
same,GI50,MDA-MB-231 breast,11.1 µM
same,TGI,MDA-MB-231 breast,24.8 µM
same,GI50,SK-MEL-5 melanoma,13.2 µM
same,TGI,SK-MEL-5 melanoma,26.2 µM
same,GI50,A549 NSCLC,17.7 µM
same,TGI,A549 NSCLC,34.2 µM
same,GI50,NCI-H226 lung,21.3 µM
same,TGI,NCI-H226 lung,55.1 µM
same,GI50,SNB-75 CNS,1.99 µM
same,TGI,SNB-75 CNS,16.4 µM
same,GI50,SR leukemia,18.7 µM
same,TGI,SR leukemia,49.5 µM
same,GI50,IGROV1 ovarian,18.8 µM
same,TGI,IGROV1 ovarian,44 µM
same,GI50,TK-10 renal,14.7 µM
same,TGI,TK-10 renal,29.5 µM
same,GI50,CAKI-1 renal,12.6 µM
same,TGI,CAKI-1 renal,26.4 µM
same,GI50,MCF7 breast,16.6 µM
same,TGI,MCF7 breast,34.5 µM
same,GI50,RPMI-8226 leukemia,18 µM
same,TGI,RPMI-8226 leukemia,43.3 µM
same,GI50,MDA-MB-435,11.8 µM
same,TGI,MDA-MB-435,25.7 µM
same,GI50,RXF 393 renal,8.86 µM
same,TGI,RXF 393 renal,22 µM
same,GI50,HOP-62 NSCLC,15.6 µM
same,TGI,HOP-62 NSCLC,31.6 µM
same,GI50,A498 renal,11.4 µM
same,TGI,A498 renal,25.1 µM
same,GI50,786-0 renal,12 µM
same,TGI,786-0 renal,25 µM
same,GI50,UACC-62 melanoma,14.9 µM
same,TGI,UACC-62 melanoma,29.1 µM
same,GI50,HCC-2998 colon,14.4 µM
same,TGI,HCC-2998 colon,27.6 µM
same,GI50,K-562 leukemia,15.9 µM
same,TGI,K-562 leukemia,83.7 µM
same,GI50,OVCAR-4 ovarian,18.5 µM
same,TGI,OVCAR-4 ovarian,65.2 µM
same,GI50,COLO 205 colon,3.32 µM
same,TGI,COLO 205 colon,11.7 µM
same,GI50,SK-OV-3 ovarian,13.1 µM
same,TGI,SK-OV-3 ovarian,26.3 µM
same,GI50,PC-3 prostate,14.2 µM
same,TGI,PC-3 prostate,30.2 µM
same,GI50,ACHN renal,15.5 µM
same,TGI,ACHN renal,30.6 µM
same,GI50,T-47D breast,16.6 µM
same,TGI,T-47D breast,39.6 µM
same,GI50,NCI-H522 lung,16.2 µM
same,TGI,NCI-H522 lung,34.1 µM
same,GI50,NCI/ADR-RES ovarian,13.6 µM
same,TGI,NCI/ADR-RES ovarian,28.3 µM
same,GI50,HS 578T breast,11.6 µM
same,TGI,HS 578T breast,27.8 µM
same,GI50,SF-268 CNS,13.5 µM
same,TGI,SF-268 CNS,29.6 µM
